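Abbreviation: GI50, concentration required for 50% inhibition of growth. TGI is the concentration that stops growth completely.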
How the values were obtained:
Test in all cases: DTP human tumour cell line panel, 384-well format
[1] = test system: SF-295 CNS
[2] = test system: KM12 colon
[3] = test system: MDA-MB-468 breast
[4] = test system: TK-10 renal
[5] = test system: OVCAR-8 ovarian
[6] = test system: SNB-19 CNS
[7] = test system: MDA-MB-231 breast
[8] = test system: HT29 colon
[9] = test system: CCRF-CEM leukemia
[10] = test system: UACC-62 melanoma
[11] = test system: NCI-H226 lung
[12] = test system: NCI-H23 lung
[13] = test system: SW-620 colon
[14] = test system: HCT-15 colon
[15] = test system: T-47D breast
[16] = test system: SK-OV-3 ovarian
[17] = test system: NCI-H322M lung
[18] = test system: HOP-92 NSCLC
[19] = test system: SF-539 CNS
[20] = test system: LOX IMVI melanoma
[21] = test system: EKVX NSCLC
[22] = test system: HOP-62 NSCLC
[23] = test system: SN12C renal
[24] = test system: OVCAR-3 ovarian
[25] = test system: UO-31 renal
[26] = test system: ACHN renal
[27] = test system: COLO 205 colon
[28] = test system: SR leukemia
[29] = test system: SF-268 CNS
[30] = test system: NCI-H460 NSCLC
[31] = test system: HS 578T breast
[32] = test system: DU-145 prostate
[33] = test system: RXF 393 renal
[34] = test system: U251 glioblastoma
[35] = test system: A549 NSCLC
[36] = test system: MDA-MB-435 melanoma
[37] = test system: SK-MEL-5 melanoma
[38] = test system: 786-0 renal
[39] = test system: NCI/ADR-RES ovarian
[40] = test system: BT-549 breast
[41] = test system: HL-60(TB) leukemia
[42] = test system: SK-MEL-28 melanoma
[43] = test system: CAKI-1 renal
[44] = test system: OVCAR-5 ovarian
[45] = test system: RPMI-8226 leukemia
[46] = test system: UACC-257 melanoma
[47] = test system: HCC-2998 colon
[48] = test system: MCF7 breast
[49] = test system: IGROV1 ovarian
[50] = test system: NCI-H522 lung
[51] = test system: K-562 leukemia
[52] = test system: OVCAR-4 ovarian
[53] = test system: M14 melanoma
[54] = test system: MALME-3M melanoma
[55] = test system: PC-3 prostate
[56] = test system: A498 renal
[57] = test system: SNB-75 CNS
[58] = test system: MOLT-4 leukemia

CSc1nc(N)cc(Oc2ccc(-c3nc(Nc4cccc(C(F)(F)F)c4)n[nH]3)cc2)n1
GI50 [1]: 0.458 µM
TGI [1]: 1.9 µM
GI50 [2]: 0.425 µM
TGI [2]: 1.85 µM
GI50 [3]: 0.202 µM
TGI [3]: 0.414 µM
GI50 [4]: 1.51 µM
TGI [4]: 6.94 µM
GI50 [5]: 0.645 µM
TGI [5]: 2.46 µM
GI50 [6]: 0.637 µM
TGI [6]: 5.17 µM
GI50 [7]: 0.487 µM
TGI [7]: 10 µM
GI50 [8]: 0.354 µM
TGI [8]: 1.43 µM
GI50 [9]: 0.175 µM
TGI [9]: 0.322 µM
GI50 [10]: 0.377 µM
TGI [10]: 2.86 µM
GI50 [11]: 1.07 µM
TGI [11]: 3.63 µM
GI50 [12]: 0.352 µM
TGI [12]: 1.94 µM
GI50 [13]: 0.431 µM
TGI [13]: 6.37 µM
GI50 [14]: 0.4 µM
TGI [14]: 1.45 µM
GI50 [15]: 0.294 µM
TGI [15]: 16.9 µM
GI50 [16]: 0.394 µM
TGI [16]: 2.22 µM
GI50 [17]: 1.85 µM
TGI [17]: 6.78 µM
GI50 [18]: 0.569 µM
TGI [18]: 3.25 µM
GI50 [19]: 0.349 µM
TGI [19]: 1.35 µM
GI50 [20]: 0.523 µM
TGI [20]: 1.79 µM
GI50 [21]: 0.599 µM
TGI [21]: 4.32 µM
GI50 [22]: 0.452 µM
TGI [22]: 2.19 µM
GI50 [23]: 0.671 µM
TGI [23]: 5.1 µM
GI50 [24]: 0.229 µM
TGI [24]: 0.492 µM
GI50 [25]: 0.502 µM
TGI [25]: 14.3 µM
GI50 [26]: 0.618 µM
TGI [26]: 2.73 µM
GI50 [27]: 0.489 µM
TGI [27]: 4.12 µM
GI50 [28]: 0.174 µM
TGI [28]: 0.333 µM
GI50 [29]: 0.463 µM
TGI [29]: 2.52 µM
GI50 [30]: 0.28 µM
TGI [30]: 0.756 µM
GI50 [31]: 0.191 µM
TGI [31]: 0.423 µM
GI50 [32]: 0.998 µM
TGI [32]: 4.08 µM
GI50 [33]: 0.326 µM
TGI [33]: 1.03 µM
GI50 [34]: 0.581 µM
TGI [34]: 2.11 µM
GI50 [35]: 0.625 µM
TGI [35]: 5.52 µM
GI50 [36]: 0.208 µM
TGI [36]: 0.437 µM
GI50 [37]: 0.237 µM
TGI [37]: 0.55 µM
GI50 [38]: 0.368 µM
TGI [38]: 1.59 µM
GI50 [39]: 0.676 µM
TGI [39]: 2.39 µM
GI50 [40]: 0.385 µM
TGI [40]: 1.62 µM
GI50 [41]: 0.18 µM
TGI [41]: 0.325 µM
GI50 [42]: 0.582 µM
TGI [42]: 3.64 µM
GI50 [43]: 0.548 µM
TGI [43]: 5.09 µM
GI50 [44]: 2.02 µM
TGI [44]: 6.29 µM
GI50 [45]: 0.179 µM
TGI [45]: 0.368 µM
GI50 [46]: 0.284 µM
TGI [46]: 0.902 µM
GI50 [47]: 0.367 µM
TGI [47]: 1.5 µM
GI50 [48]: 0.317 µM
TGI [48]: 1.84 µM
GI50 [49]: 0.676 µM
TGI [49]: 3.53 µM
GI50 [50]: 0.241 µM
TGI [50]: 0.625 µM
GI50 [51]: 0.32 µM
TGI [51]: 0.968 µM
GI50 [52]: 0.457 µM
TGI [52]: 2.21 µM
GI50 [53]: 0.323 µM
TGI [53]: 1.21 µM
GI50 [54]: 0.315 µM
TGI [54]: 1 µM
GI50 [55]: 0.611 µM
TGI [55]: 3.09 µM
GI50 [56]: 0.421 µM
TGI [56]: 1.92 µM
GI50 [57]: 0.34 µM
TGI [57]: 1.97 µM
GI50 [58]: 0.187 µM
TGI [58]: 0.337 µM

— PubChem BioAssay (NCI)
